# ChEMBL document CHEMBL1139549, “Two prodrugs of potent and selective GluR5 kainate receptor antagonists actives in three animal models of pain” (J Med Chem, 2005)
# Target: Glutamate receptor 2 (Homo sapiens, UniProt P42262)
# Experiment: biochemical
# Description: Inhibition of [3H]-AMPA binding to human GluR2 receptors expressed in HEK 293 cells
# Glutamate receptor 2, sequence (P42262 whole entry): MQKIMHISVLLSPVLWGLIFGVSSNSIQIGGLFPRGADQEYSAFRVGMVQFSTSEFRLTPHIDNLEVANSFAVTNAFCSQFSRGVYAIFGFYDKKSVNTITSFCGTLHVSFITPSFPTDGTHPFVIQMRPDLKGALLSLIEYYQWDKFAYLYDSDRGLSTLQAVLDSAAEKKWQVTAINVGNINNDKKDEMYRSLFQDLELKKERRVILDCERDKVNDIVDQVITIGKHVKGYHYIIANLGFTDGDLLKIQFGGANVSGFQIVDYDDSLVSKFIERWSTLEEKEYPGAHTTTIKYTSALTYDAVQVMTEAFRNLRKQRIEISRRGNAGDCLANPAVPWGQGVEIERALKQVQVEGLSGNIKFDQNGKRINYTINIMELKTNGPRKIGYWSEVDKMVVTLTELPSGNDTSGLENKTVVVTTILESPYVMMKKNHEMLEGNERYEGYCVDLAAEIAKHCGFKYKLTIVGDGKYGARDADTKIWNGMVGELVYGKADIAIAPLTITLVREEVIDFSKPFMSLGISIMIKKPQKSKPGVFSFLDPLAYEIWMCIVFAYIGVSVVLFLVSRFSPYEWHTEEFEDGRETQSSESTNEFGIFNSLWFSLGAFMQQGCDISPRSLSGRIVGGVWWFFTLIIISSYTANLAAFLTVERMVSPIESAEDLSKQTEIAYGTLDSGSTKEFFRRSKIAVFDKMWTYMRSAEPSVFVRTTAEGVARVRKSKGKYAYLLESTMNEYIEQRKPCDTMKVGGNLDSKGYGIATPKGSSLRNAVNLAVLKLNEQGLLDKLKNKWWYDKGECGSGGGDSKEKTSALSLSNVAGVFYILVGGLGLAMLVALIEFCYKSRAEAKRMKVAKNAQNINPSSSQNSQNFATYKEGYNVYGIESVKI
row,Structure (SMILES),Ki [µM]
1,CCC(CC)COC(=O)[C@@H]1C[C@H]2C[C@@H](Nc3ccccc3-c3nn[nH]n3)CC[C@H]2CN1,> 100
2,CC(C)COC(=O)[C@@H]1C[C@H]2C[C@@H](Oc3ccccc3-c3nn[nH]n3)CC[C@H]2CN1,> 100
3,O=C(O)[C@@H]1C[C@H]2C[C@@H](Oc3ccccc3-c3nn[nH]n3)CC[C@H]2CN1,8.26

# Further lines, results first:
row,Ki [µM],Structure (SMILES)
1,> 100,O=C(O)c1ccc(C[C@H]2CC[C@H]3CN[C@H](C(=O)O)C[C@H]3C2)cc1
2,5.51,O=C(O)[C@@H]1C[C@H]2C[C@@H](Nc3ccccc3-c3nn[nH]n3)CC[C@H]2CN1

# Target: Glutamate receptor ionotropic, kainate 1 (Homo sapiens, UniProt P39086)
# Sequence (P39086 whole entry): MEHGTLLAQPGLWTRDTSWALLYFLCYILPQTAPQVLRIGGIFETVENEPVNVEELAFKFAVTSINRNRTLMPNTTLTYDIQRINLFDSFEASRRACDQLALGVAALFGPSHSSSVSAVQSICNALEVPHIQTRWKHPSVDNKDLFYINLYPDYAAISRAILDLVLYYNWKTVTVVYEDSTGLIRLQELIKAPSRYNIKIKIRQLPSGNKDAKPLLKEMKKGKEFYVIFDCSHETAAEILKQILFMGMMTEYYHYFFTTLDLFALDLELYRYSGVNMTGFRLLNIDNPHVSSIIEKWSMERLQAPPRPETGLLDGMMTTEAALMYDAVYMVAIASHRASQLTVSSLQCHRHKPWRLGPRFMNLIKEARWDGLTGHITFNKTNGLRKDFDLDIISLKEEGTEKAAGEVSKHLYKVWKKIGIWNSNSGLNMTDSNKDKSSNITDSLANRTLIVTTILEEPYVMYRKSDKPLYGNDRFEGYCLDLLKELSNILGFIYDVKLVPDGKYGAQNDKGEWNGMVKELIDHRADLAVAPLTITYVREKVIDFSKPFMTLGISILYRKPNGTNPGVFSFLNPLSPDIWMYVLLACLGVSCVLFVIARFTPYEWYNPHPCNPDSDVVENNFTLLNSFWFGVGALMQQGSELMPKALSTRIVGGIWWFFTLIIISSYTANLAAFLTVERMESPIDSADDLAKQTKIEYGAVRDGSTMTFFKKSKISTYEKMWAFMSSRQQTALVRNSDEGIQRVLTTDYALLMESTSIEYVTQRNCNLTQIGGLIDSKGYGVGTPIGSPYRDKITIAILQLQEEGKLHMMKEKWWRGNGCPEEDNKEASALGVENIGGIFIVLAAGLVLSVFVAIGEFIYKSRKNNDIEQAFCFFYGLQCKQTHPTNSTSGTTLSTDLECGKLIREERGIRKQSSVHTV
# Experiment: not given
row,Ki [µM],Structure (SMILES)
1,4.16,O=C(O)[C@@H]1C[C@H]2C[C@@H](CCc3nn[nH]n3)CC[C@H]2CN1 [TEZAMPANEL ANHYDROUS]
2,7.37,CC(C)COC(=O)[C@@H]1C[C@H]2C[C@@H](Oc3ccccc3-c3nn[nH]n3)CC[C@H]2CN1
3,1.69,O=C(O)[C@@H]1C[C@H]2C[C@@H](Oc3ccccc3-c3nn[nH]n3)CC[C@H]2CN1
4,1.55,O=C(O)[C@@H]1C[C@H]2C[C@@H](Nc3ccccc3-c3nn[nH]n3)CC[C@H]2CN1

row,Structure (SMILES),Ki [µM]
1,CCC(CC)COC(=O)[C@@H]1C[C@H]2C[C@@H](Nc3ccccc3-c3nn[nH]n3)CC[C@H]2CN1,31.8

# Target: not listed separately
# Experiment: Inhibition of [3H]KA binding to human iontropic glutamate receptors 5 and 6
row,Structure (SMILES),Ki [µM]
1,CCC(CC)COC(=O)[C@@H]1C[C@H]2C[C@@H](Nc3ccccc3-c3nn[nH]n3)CC[C@H]2CN1,13.7
2,O=C(O)[C@@H]1C[C@H]2C[C@@H](CCc3nn[nH]n3)CC[C@H]2CN1 [TEZAMPANEL ANHYDROUS],2.1
3,CC(C)COC(=O)[C@@H]1C[C@H]2C[C@@H](Oc3ccccc3-c3nn[nH]n3)CC[C@H]2CN1,5.98
4,NS(=O)(=O)c1cccc2c1c([N+](=O)[O-])cc1nc(O)c(O)nc12 [NBQX],6.12
5,O=C(O)[C@@H]1C[C@H]2C[C@@H](Oc3ccccc3-c3nn[nH]n3)CC[C@H]2CN1,1

# Next, values leading:
row,Ki [µM],Structure (SMILES)
1,10.2,O=C(O)c1ccc(C[C@H]2CC[C@H]3CN[C@H](C(=O)O)C[C@H]3C2)cc1
2,1.37,O=C(O)[C@@H]1C[C@H]2C[C@@H](Nc3ccccc3-c3nn[nH]n3)CC[C@H]2CN1

# Target: not listed separately
# Experiment: Inhibition of [3H]KA binding to human iontropic glutamate receptors 5 and KA-2
row,Structure (SMILES),Ki [µM]
1,CCC(CC)COC(=O)[C@@H]1C[C@H]2C[C@@H](Nc3ccccc3-c3nn[nH]n3)CC[C@H]2CN1,> 100
2,O=C(O)[C@@H]1C[C@H]2C[C@@H](CCc3nn[nH]n3)CC[C@H]2CN1 [TEZAMPANEL ANHYDROUS],16.2
3,CC(C)COC(=O)[C@@H]1C[C@H]2C[C@@H](Oc3ccccc3-c3nn[nH]n3)CC[C@H]2CN1,60.9
4,NS(=O)(=O)c1cccc2c1c([N+](=O)[O-])cc1nc(O)c(O)nc12 [NBQX],26.6
5,O=C(O)[C@@H]1C[C@H]2C[C@@H](Oc3ccccc3-c3nn[nH]n3)CC[C@H]2CN1,7.89

# Continued, values first:
row,Ki [µM],Structure (SMILES)
1,> 100,O=C(O)c1ccc(C[C@H]2CC[C@H]3CN[C@H](C(=O)O)C[C@H]3C2)cc1
2,9.86,O=C(O)[C@@H]1C[C@H]2C[C@@H](Nc3ccccc3-c3nn[nH]n3)CC[C@H]2CN1

# Target: Glutamate receptor ionotropic, kainate 2 (Homo sapiens, UniProt Q13002)
# Sequence (Q13002 whole entry): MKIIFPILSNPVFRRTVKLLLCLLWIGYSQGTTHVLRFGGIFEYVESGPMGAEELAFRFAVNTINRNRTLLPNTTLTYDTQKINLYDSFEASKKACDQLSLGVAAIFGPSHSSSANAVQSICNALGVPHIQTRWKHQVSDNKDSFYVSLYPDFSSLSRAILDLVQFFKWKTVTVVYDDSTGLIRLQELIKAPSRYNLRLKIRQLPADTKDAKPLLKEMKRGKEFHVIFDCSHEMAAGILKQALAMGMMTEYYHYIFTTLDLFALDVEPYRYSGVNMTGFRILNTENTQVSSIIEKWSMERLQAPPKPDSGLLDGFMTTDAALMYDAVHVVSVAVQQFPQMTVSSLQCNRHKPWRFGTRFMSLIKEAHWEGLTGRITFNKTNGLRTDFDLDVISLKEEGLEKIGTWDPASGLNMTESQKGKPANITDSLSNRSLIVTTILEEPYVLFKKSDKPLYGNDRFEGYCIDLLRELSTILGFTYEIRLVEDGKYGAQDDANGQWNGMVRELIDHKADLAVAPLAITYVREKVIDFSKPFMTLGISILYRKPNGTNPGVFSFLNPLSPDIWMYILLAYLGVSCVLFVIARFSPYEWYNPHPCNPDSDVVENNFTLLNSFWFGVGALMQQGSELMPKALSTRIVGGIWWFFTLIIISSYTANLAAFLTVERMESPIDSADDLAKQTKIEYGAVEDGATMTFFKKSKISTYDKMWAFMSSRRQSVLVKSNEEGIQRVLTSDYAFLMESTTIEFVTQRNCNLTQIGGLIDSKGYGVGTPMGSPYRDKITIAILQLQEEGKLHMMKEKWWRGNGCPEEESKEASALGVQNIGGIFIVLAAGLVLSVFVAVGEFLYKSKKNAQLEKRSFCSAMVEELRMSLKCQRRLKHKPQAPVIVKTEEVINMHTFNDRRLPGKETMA
# Experiment: Inhibition of [3H]KA binding to iontropic glutamate receptor 6
row,Structure (SMILES),Ki [µM]
1,CCC(CC)COC(=O)[C@@H]1C[C@H]2C[C@@H](Nc3ccccc3-c3nn[nH]n3)CC[C@H]2CN1,> 100
2,O=C(O)[C@@H]1C[C@H]2C[C@@H](CCc3nn[nH]n3)CC[C@H]2CN1 [TEZAMPANEL ANHYDROUS],> 100
3,CC(C)COC(=O)[C@@H]1C[C@H]2C[C@@H](Oc3ccccc3-c3nn[nH]n3)CC[C@H]2CN1,> 100
4,O=C(O)[C@@H]1C[C@H]2C[C@@H](Oc3ccccc3-c3nn[nH]n3)CC[C@H]2CN1,> 100

# The remaining lines, values ahead:
row,Ki [µM],Structure (SMILES)
1,> 100,O=C(O)c1ccc(C[C@H]2CC[C@H]3CN[C@H](C(=O)O)C[C@H]3C2)cc1
2,> 100,O=C(O)[C@@H]1C[C@H]2C[C@@H](Nc3ccccc3-c3nn[nH]n3)CC[C@H]2CN1

# Target: not listed separately
# Experiment: Inhibition of [3H]KA binding to human iontropic glutamate receptors 6 and KA-2
row,Structure (SMILES),Ki [µM]
1,CCC(CC)COC(=O)[C@@H]1C[C@H]2C[C@@H](Nc3ccccc3-c3nn[nH]n3)CC[C@H]2CN1,> 100
2,O=C(O)[C@@H]1C[C@H]2C[C@@H](CCc3nn[nH]n3)CC[C@H]2CN1 [TEZAMPANEL ANHYDROUS],> 100
3,CC(C)COC(=O)[C@@H]1C[C@H]2C[C@@H](Oc3ccccc3-c3nn[nH]n3)CC[C@H]2CN1,> 100
4,NS(=O)(=O)c1cccc2c1c([N+](=O)[O-])cc1nc(O)c(O)nc12 [NBQX],0.6
5,O=C(O)[C@@H]1C[C@H]2C[C@@H](Oc3ccccc3-c3nn[nH]n3)CC[C@H]2CN1,> 100

# More lines, now with the values ahead:
row,Ki [µM],Structure (SMILES)
1,> 100,O=C(O)c1ccc(C[C@H]2CC[C@H]3CN[C@H](C(=O)O)C[C@H]3C2)cc1
2,> 100,O=C(O)[C@@H]1C[C@H]2C[C@@H](Nc3ccccc3-c3nn[nH]n3)CC[C@H]2CN1
